Legend:
[1] = tested on: HLA-DR; assay: peptides bound to HLA-DR on cells cultured with NAN-HA/BEBA-HA formula, isolated by immunoprecipitation and identified by LC-MS/MS; type: binding, human; conditions: U937 and Thp1 cells incubated 24 hours with BEBA-HA; immunoprecipitation with clone L243; nano-LC-MSMS
Experimental: In a set of experiments detailed in Example 1, the present inventors identified the peptide sequences of BLG responsible for the induction of oral tolerance towards milk proteins, in particular BLG. In a first step, using a cellular based assay, partially hydrolyzed infant formula NAN HA™ (otherwise known as BEBE HA™) from Nestlé, was incubated with human cells expressing the Major Histocompatibility Complex (MHC) class II receptor, HLA-DR. As the first step in the induction of oral tolerance, the HLA receptor presents peptide sequences to the T cells, thereby inducing tolerance. Thus, development of tolerance is largely dependent on the recognition of the peptide sequence by the MHC.
Thus, in the current invention, the human cells expressing HLA-DR were cultured in the presence of NAN-HA™ formula (which had been verified to be non-toxic for the cells), the peptides that bound to the HLA receptor were isolated by immunoprecipitation, and then identified by mass spectrometry and amino acid sequencing.
The Thp1 and U937 cells were incubated in 20 mL RPMI-1640 medium with L-Glutamine (Sigma) supplemented with 10% heat-inactivated FCS (Amimed, Bioconcept) and Penicillin/Streptomycin (Sigma) at a concentration of 1×10^6 cells/mL in a T175 cm^2 (Falcon) with respectively 1 ug/mL and 100 ug/mL of BEBA-HA (Nestlé, Lot# L02680742AP) for a 24 hours period at 37° C. in presence of 5% CO2. Cells were spun down and harvested to perform immunoprecipitation of MHC-peptide complexes.
Briefly, for each condition tested (control without BEBA-HA, sample with BEBA-HA for both cell lines), 2×10^7 cells were resuspended in ice cold TBS and washed three times. […]
Before MS analysis, HLA-DR peptides were desalted using either reversed-phase C18 (The Nest group, USA) or mixed-mode OASIS (Waters, USA) desalting columns as described in the manufacturer's manual. After desalting, peptides were analyzed by nano-LC-MSMS using an in-house Magic C18 column (150×0.075 mm) for peptide separation (2-35% Acetontril/0.1% formaic acid in 30 minutes) coupled to an Orbitrap XL instrument. […]

[2] = tested on: oral tolerance to β-lactoglobulin; conditions: previously identified as part of a longer peptide sequence in the earlier filing; cited from earlier work
[3] = tested on: BLG-specific IgE antibodies; assay: experimental mouse model of sensitization to BLG: gavage, then i.p. sensitization, BLG-specific IgE in serum; type: in vivo, BALB/cJ mice; conditions: gavage days 1, 2, 3, 8, 9 and 10 (0.22 μmole); i.p. native BLG on alum day 14; serum days 30-33; FIG. 1
Experimental: Mice were fed either native BLG or either synthetic peptide (84-106) or (25-107) by gavage on day 1, 2, 3, 8, 9 and 10. They were then sensitized by i.p. administration with native BLG on day 14. Serum IgE levels were measured between day 30 and 33.
Specific pathogen-free (SPF) BALB/cJ mice (3 to 4 weeks-old females, Centre d'Elevage René Janvier, Le Genest Saint-Isle, France) were housed in filtered cages under normal SPF husbandry conditions (autoclaved bedding and sterile water) and were acclimatized for two weeks before experiments. They were maintained on a diet deprived of animal protein, and in which BLG was not detected using specific sandwich immunoassays. All animal experiments were performed according to European Community rules of animal care, and with authorization 91-368 of the French Veterinary Services. […]
Groups of 6 or 7 mice were administered either 4 mg of native bovine BLG, or equivalent quantity (i.e. 0.22 μmole) of isolated synthetic BLG peptides. […]
The efficacy of mice sensitization was assessed by quantitative measurements of BLG-specific IgE antibodies on individual serum samples collected from the mice retro-orbital venous plexus under light anaesthesia (Isoflurane, Baxter) between days 30-33. Non-specific binding was determined using individual sera from 10 naive mice, and was deduced from the absorbance values measured with immune sera. […]

EVDDEALEK [peptide c, previously known tolerogenic BLG peptide, position 143-151, positive control]
recognition by and binding to HLA-DR (identified among HLA-DR bound peptides) [1]: identified by this method | induction of oral tolerance [2]: inducers of oral tolerance

IDALNENK [peptide a, previously known tolerogenic BLG peptide, position 100-107, positive control]
recognition by and binding to HLA-DR (identified among HLA-DR bound peptides) [1]: identified by this method | induction of oral tolerance [2]: inducers of oral tolerance

VLDTDY (SAEPEQ; UniProt P02754 126-131, looked up, fragment) [peptide b, previously known tolerogenic BLG peptide, position 110-115, positive control]
recognition by and binding to HLA-DR (identified among HLA-DR bound peptides) [1]: identified by this method | induction of oral tolerance [2]: inducers of oral tolerance

peptide (84-106): synthetic peptide corresponding to the bovine BLG sequence numbers 84-106 (MW 2731 Da) (IDALNENKVLVLDTDYKKYLLFC; UniProt P02754 100-122, looked up, fragment)
BLG-specific serum IgE level / tolerance induction compared to control (PBS) [3]: tendency towards a lower level of IgE

Source: patent US10092633B2, “Newly identified peptides for use in the induction of oral tolerance in young mammals” (NESTEC S.A., priority 2013, dated 2018)
